Key:
[1] = molecular target: T1, rat mGlu2 receptor (Rattus norvegicus, UniProt P31421); assay: [3H]-LY354740 binding on mGlu2 transfected CHO cell membranes; conditions: inhibition of 10 nM [3H]-LY354740 binding, membranes of mGlu2 transfected CHO cells, room temperature, 1 hour; read-out: mGluR2 Ki
T1 construct: expressed in transfected cells; membranes prepared from them
From the text: [^3H]-LY354740 Binding on mGlu2 Transfected CHO Cell Membranes
Transfection and cell culture: cDNA encoding the rat mGlu2 receptor protein in pBluescript II was subcloned into the eukaryotic expression vector pcDNA I-amp from Invitrogen (NV Leek, The Netherlands). This vector construct (pcD1mGR2) was co-transfected with a psvNeo plasmid encoding the gene for neomycin resistance, into CHO cells by a modified calcium phosphate method described by Chen & Okayama (1988). The cells were maintained in Dulbecco's Modified Eagle medium with reduced L-glutamine (2 mM final concentration) and 10% dialyzed foetal calf serum from Gibco BRL (Basel, Switzerland). Selection was made in the presence of G-418 (1000 μg/ml final). Clones were identified by reverse transcription of 5 μg total RNA, follow by PCR using mGlu2 receptor specific primers 5′-[…]-3′ (SEQ ID NO: 1) and 5′-[…]-3′ (SEQ ID NO:2) in 60 mM Tris HCl (pH 10), 15 mM (NH4)2SO4, 2 mM MgCl2, 25 units/ml Taq Polymerase with 30 cycles annealing at 60° C. for 1 min., extension at 72° C. for 30 s, and 1 min. 95° C. denaturation.
Membrane preparation: Cells, cultured as above, were harvested and washed three times with cold PBS and frozen at −80° C. The pellet was resuspended in cold 20 mM HEPES-NaOH buffer containing 10 mM EDTA (pH 7.4), and homogenized with a polytron (Kinematica, AG, Littau, Switzerland) for 10 s at 10 000 rpm. After centrifugation for 30 min. at 4° C., the pellet was washed once with the same buffer, and once with cold 20 mM HEPES-NaOH buffer containing 0.1 mM EDTA, (pH 7.4). Protein content was measured using the Pierce method (Socochim, Lausanne, Switzerland) using bovine serum albumin as standard.
[^3H]-LY354740 binding: After thawing, the membranes were resuspended in cold 50 mM Tris-HCl buffer containing 2 mM MgCl2 and 2 mM CaCl2, (pH 7) (binding buffer). The final concentration of the membranes in the assays was 25 μg protein/ml. Inhibition experiments were performed with membranes incubated with 10 nM [^3H]-LY354740 at room temperature, for 1 hour, in the presence of various concentrations of the compound to be tested. Following the incubations, membranes were filtered onto Whatmann GF/C glass fiber filters and washed 5 times with cold binding buffer. Non specific binding was measured in the presence of 10 μM DCG IV. After transfer of the filters into plastic vials containing 10 ml of Ultima-gold scintillation fluid (Packard, Zürich, Switzerland), the radioactivity was measured by liquid scintillation in a Tri-Carb 2500 TR counter (Packard, Zürich, Switzerland).
Data analysis: The inhibition curves were fitted with a four parameter logistic equation giving IC50 values, and Hill coefficients.

T1 sequence (P31421 19-872): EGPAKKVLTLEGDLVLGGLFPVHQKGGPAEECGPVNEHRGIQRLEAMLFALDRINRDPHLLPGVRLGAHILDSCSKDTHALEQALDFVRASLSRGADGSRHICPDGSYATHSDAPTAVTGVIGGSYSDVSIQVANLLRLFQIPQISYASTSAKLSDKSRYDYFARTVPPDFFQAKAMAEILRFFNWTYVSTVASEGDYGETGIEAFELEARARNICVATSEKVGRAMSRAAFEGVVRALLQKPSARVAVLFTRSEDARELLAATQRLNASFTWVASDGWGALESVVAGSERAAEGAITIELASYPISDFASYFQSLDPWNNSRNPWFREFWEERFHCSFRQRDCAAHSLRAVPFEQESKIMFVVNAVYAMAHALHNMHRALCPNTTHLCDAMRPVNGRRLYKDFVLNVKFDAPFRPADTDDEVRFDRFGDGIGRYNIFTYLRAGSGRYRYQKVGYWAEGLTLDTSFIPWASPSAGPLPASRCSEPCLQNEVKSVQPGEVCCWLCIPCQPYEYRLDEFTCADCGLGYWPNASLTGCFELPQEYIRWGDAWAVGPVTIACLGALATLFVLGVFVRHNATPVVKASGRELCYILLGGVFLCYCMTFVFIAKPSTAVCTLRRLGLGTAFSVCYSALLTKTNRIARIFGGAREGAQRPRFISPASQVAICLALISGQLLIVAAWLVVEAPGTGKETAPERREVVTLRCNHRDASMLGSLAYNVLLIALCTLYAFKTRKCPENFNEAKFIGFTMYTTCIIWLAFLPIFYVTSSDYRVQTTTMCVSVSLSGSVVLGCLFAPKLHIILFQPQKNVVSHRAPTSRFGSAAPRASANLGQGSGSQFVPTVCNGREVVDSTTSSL

| Ki [1] [nM] | melting point [°C] | Compound |
| --- | --- | --- |
| 43.9 |  | Cc1cc(-c2cc(C(F)(F)F)n3ncc(-c4cc[n+]([O-])c(C)c4)c3n2)ccc1Cl [Example 7.1, 5-(4-Chloro-3-methyl-phenyl)-3-(2-methyl-1-oxy-pyridin-4-yl)-7-trifluoromethyl-pyrazolo[1,5-a]pyrimidine] |
| 76 | 238 | Cc1cc(-c2cc(C(F)(F)F)n3nc(CC#N)c(C#N)c3n2)ccc1Cl [Example 3.2, 5-(4-Chloro-3-methyl-phenyl)-2-cyanomethyl-7-trifluoromethyl-pyrazolo[1,5-a]pyrimidine-3-carbonitrile] |
| 48 | 247 | FC(F)(F)COc1ccc(-c2cc(C(F)(F)F)n3ncc(-c4ccncc4)c3n2)cc1C(F)(F)F [Example 4.43, 5-[4-(2,2,2-Trifluorothoxy)-3-trifluoromethyl-phenyl]-3-pyridin-4-yl-7-trifluoromethyl-pyrazolo[1,5-a]pyrimidine] |
| 47 | 224 | FC(F)(F)c1cc(-c2ccc(Cl)c(Cl)c2)nc2c(-c3cccnc3)cnn12 [Example 4.9, 5-(3,4-Dichloro-phenyl)-3-pyridin-3-yl-7-trifluoromethyl-pyrazolo[1,5-a]pyrimidine] |
| 43 | 236 | Cc1cc(-c2cnn3c(C(F)(F)F)cc(-c4cccc(C(F)(F)F)c4)nc23)cc(C)n1 [Example 4.24, 5-(3-Trifluoromethyl-phenyl)-3-(2,6-dimethyl-pyridin-4-yl)-7-trifluoromethyl-pyrazolo[1,5-a]pyrimidine] |
| 45 | 250 | Cc1cc(-c2cnn3c(C(F)(F)F)cc(-c4ccc(C(F)(F)F)c(F)c4)nc23)ccn1 [Example 4.35, 5-(3-Fluoro-4-trifluoromethyl-phenyl)-3-(2-methyl-pyridin-4-yl)-7-trifluoromethyl-pyrazolo[1,5-a]pyrimidine] |
| 43 | 204 | N#Cc1cnn2c(C(F)(F)F)cc(-c3ccc(F)c(C(F)(F)F)c3)nc12 [Example 1.13, 5-(4-Fluoro-3-trifluoromethyl-phenyl)-7-trifluoromethyl-pyrazolo[1,5-a]pyrimidine-3-carbonitrile] |
| 43 | 219 | N#Cc1ncn2c(C(F)(F)F)cc(-c3ccc(Cl)c(Cl)c3)nc12 [Example 5.20, 5-(3,4-Dichloro-phenyl)-7-trifluoromethyl-imidazo[1,5-a]pyrimidine-8-carbonitrile] |
| 72 | 215 | Cc1nn2c(C(F)(F)F)cc(-c3cccc(C(F)(F)F)c3)nc2c1C#N [Example 2.2, 2-Methyl-5-(3-trifluoromethyl-phenyl)-7-trifluoromethyl-pyrazolo[1,5-a]pyrimidine-3-carbonitrile] |
| 32 |  | N#Cc1c(-c2ccc(OCC(F)(F)F)c(C(F)(F)F)c2)nn2c(C(F)(F)F)ccnc12 [Example 1.19, 2-(4-Trifluoroethoxy-3-trifluoromethyl-phenyl)-4-trifluoromethyl-pyrazolo[1,5-a]pyrimidine-8-carbonitrile] |
|  | 190 | Fc1ccc(-c2cc(C(F)(F)F)n3ncc(-c4cccnc4)c3n2)cc1Cl [Example 4.6, 5-(3-Chloro-4-fluoro-phenyl)-3-pyridin-3-yl-7-trifluoromethyl-pyrazolo[1,5-a]pyrimidine] |
|  | 257 | Cc1cc(-c2ncn3c(C(F)(F)F)cc(-c4ccc(C(F)(F)F)cc4)nc23)ccn1 [Example 8.24, 8-(2-Methyl-pyridin-4-yl)-4-trifluoromethyl-2-(4-trifluoromethyl-phenyl)-imidazo[1,5-a]pyrimidine] |
|  | 217 | Cc1cc(-c2cc(C(F)(F)F)n3cnc(C#N)c3n2)ccc1C(F)(F)F [Example 5.23, 2-(3-Methyl-4-trifluoromethyl-phenyl)-4-trifluoromethyl-imidazo[1,5-a]pyrimidine-8-carbonitrile] |
|  | 188 | FC(F)(F)c1cc(-c2ccc(Cl)cc2)nc2c(-c3cccnc3)cnn12 [Example 4.1, 5-(4-Chloro-phenyl)-3-pyridin-3-yl-7-trifluoromethyl-pyrazolo[1,5-a]pyrimidine] |
|  | 258 | Cc1cc(-c2cnn3c(C(F)(F)F)cc(-c4ccc(Br)cc4)nc23)cc(C)n1 [Example 4.57, 5-(4-Bromo-phenyl)-3-(2,6-dimethyl-pyridin-4-yl)-7-trifluoromethyl-pyrazolo[1,5-a]pyrimidine] |
|  | 221 | Cc1cc(-c2cnn3c(C(F)F)cc(-c4ccc(C(F)(F)F)c(C)c4)nc23)ccn1 [Example 9.4, 7-Difluoromethyl-3-(2-methyl-pyridin-4-yl)-5-(3-methyl-4-trifluoromethyl-phenyl)-pyrazolo[1,5-a]pyrimidine] |
|  | 253 | Cc1cc(-c2cnn3c(C(F)(F)F)cc(-c4ccc(C(F)(F)F)c(C)c4)nc23)cc(C)n1 [Example 4.38, 5-(3-Methyl-4-trifluoromethyl-phenyl)-3-(2,6-dimethyl-pyridin-4-yl)-7-trifluoromethyl-pyrazolo[1,5-a]pyrimidine] |
|  | 227 | Cc1cc(-c2cc(C(F)(F)F)n3ncc(-c4ccncc4)c3n2)ccc1C(F)(F)F [Example 4.37, 5-(3-Methyl-4-trifluoromethyl-phenyl)-3-pyridin-4-yl-7-trifluoromethyl-pyrazolo[1,5-a]pyrimidine] |
|  | 192 | COc1ccc(-c2cc(C(F)(F)F)n3cnc(C#N)c3n2)cc1 [Example 5.5, 2-(4-Methoxy-phenyl)-4-trifluoromethyl-imidazo[1,5-a]pyrimidine-8-carbonitrile] |
|  | 238 | Cc1nn2c(C(F)(F)F)cc(-c3ccc(Cl)cc3)nc2c1C#N [Example 2.3, 5-(4-Chloro-phenyl)-2-methyl-7-trifluoromethyl-pyrazolo[1,5-a]pyrimidine-3-carbonitrile] |
|  | 254 | Cc1cc(-c2cnn3c(C(F)(F)F)cc(-c4ccc(Cl)c(C)c4)nc23)cc(C)n1 [Example 4.20, 5-(4-Chloro-3-methyl-phenyl)-3-(2,6-dimethyl-pyridin-4-yl)-7-trifluoromethyl-pyrazolo[1,5-a]pyrimidine] |
|  | 262 | Fc1cc(-c2cc(C(F)(F)F)n3ncc(-c4ccncc4)c3n2)ccc1C(F)(F)F [Example 4.17, 5-(3-Fluoro-4-trifluoromethyl-phenyl)-3-pyridin-4-yl-7-trifluoromethyl-pyrazolo[1,5-a]pyrimidine] |
|  | 226 | CCOc1cc(-c2cc(C(F)(F)F)n3ncc(-c4ccnc(C)c4)c3n2)ccc1C(F)(F)F [Example 4.49, 5-(3-Ethoxy-4-trifluoromethyl-phenyl)-3-(2-methyl-pyridin-4-yl)-7-trifluoromethyl-pyrazolo[1,5-a]pyrimidine] |
|  | 165 | N#Cc1cnn2c(C(F)(F)F)cc(-c3ccccc3F)nc12 [Example 1.11, 5-(2-Fluoro-phenyl)-7-trifluoromethyl-pyrazolo[1,5-a]pyrimidine-3-carbonitrile] |
|  | 233 | FC(F)(F)COc1cc(-c2cc(C(F)(F)F)n3cnc(-c4ccncc4)c3n2)ccc1C(F)(F)F [Example 8.32, 8-Pyridin-4-yl-2-[3-(2,2,2-trifluoro-ethoxy)-4-trifluoromethyl-phenyl]-4-trifluoromethyl-imidazo[1,5-a]pyrimidine] |
|  | 199 | N#Cc1cnn2c(C(F)(F)F)cc(-c3cccc(F)c3)nc12 [Example 1.8, 5-(3-Fluoro-phenyl)-7-trifluoromethyl-pyrazolo[1,5-a]pyrimidine-3-carbonitrile] |

From patent publication US7514443B2, “Substituted pyrazolo[1,5-a]pyrimidines as inhibitors of metabotropic glutamate receptors” (Hoffmann-La Roche Inc., priority 2003, dated 2009)
